# Source: patent publication US20050070510A1, “Substituted tetracycline compounds as synergistic antifungal agents” (Paratek Pharmaceuticals, Inc., priority 2001, published 2005)
# System: COS-1 cells
# Experiment: In vitro mammalian cytotoxicity assay (Resazurin)
row,SMILES,In Vitro Cytotoxicity
1,CN(C)Cc1cccc(-c2ccc(O)c3c2C[C@@]2(N)C[C@@]4(N)[C@H](N(C)C)C(O)=C(C(N)=O)C(=O)[C@@]4(C#N)C(O)=C2C3=O)c1 [HQ],* (toxicities greater than >25 μg/ml are represented by *)
2,CCOC(=O)c1coc(NCc2cc(N(C)C)c3c(c2O)C(=O)C2=C(O)[C@]4(C#N)C(=O)C(C(N)=O)=C(O)[C@@H](N(C)C)[C@]4(N)C[C@]2(N)C3)n1 [TF],* (toxicities greater than >25 μg/ml are represented by *)
3,CN(C)[C@@H]1C(O)=C(C(N)=O)C(=O)[C@@]2(C#N)C(O)=C3C(=O)c4c(O)ccc(-c5ccc(NC(=O)OC(C)(C)C)cc5)c4C[C@@]3(N)C[C@@]12N [PF],** (toxicities less than 25 μg/mL are represented by **)
4,CC(=O)Oc1cccc(-c2cc(N(C)C)c3c(c2O)C(=O)C2=C(O)[C@]4(C#N)C(=O)C(C(N)=O)=C(O)[C@@H](N(C)C)[C@]4(N)C[C@]2(N)C3)c1 [GP],* (toxicities greater than >25 μg/ml are represented by *)
5,CCCC(C)(C)NC(=O)C1=C(O)[C@@H](N(C)C)[C@]2(N)[C@@H](O)[C@@]3(N)C(=C(O)[C@]2(C#N)C1=O)C(=O)c1c(O)ccc(N(C)C)c1[C@@H]3N [BE],** (toxicities less than 25 μg/mL are represented by **)
6,CC(=O)c1ccc(/C=C2\c3cccc(O)c3C(=O)C3=C(O)[C@]4(C#N)C(=O)C(C(N)=O)=C(O)[C@@H](N(C)C)[C@]4(N)[C@@H](O)[C@@]32N)cc1 [DE],** (toxicities less than 25 μg/mL are represented by **)
7,COc1ccc(C#Cc2ccc(O)c3c2C[C@@]2(N)C[C@@]4(N)[C@H](N(C)C)C(O)=C(C(N)=O)C(=O)[C@@]4(C#N)C(O)=C2C3=O)cc1 [FZ],** (toxicities less than 25 μg/mL are represented by **)
8,CCCCCC(=O)c1ccc(O)c2c1C[C@@]1(N)C[C@@]3(N)[C@H](N(C)C)C(O)=C(C(N)=O)C(=O)[C@@]3(C#N)C(O)=C1C2=O [TT],** (toxicities less than 25 μg/mL are represented by **)
9,CN(C)c1ccc(-c2cc(N)c(O)c3c2C[C@@]2(N)C[C@@]4(N)C(N(C)C)C(O)=C(C(N)=O)C(=O)[C@@]4(C#N)C(O)=C2C3=O)cc1 (some centres unmarked) [RB],* (toxicities greater than >25 μg/ml are represented by *)
10,CN(C)[C@@H]1C(O)=C(C(N)=O)C(=O)[C@@]2(C#N)C(O)=C3C(=O)c4c(ccc(NC=O)c4O)C(N)[C@@]3(N)[C@H](O)[C@@]12N (some centres unmarked) [DC],** (toxicities less than 25 μg/mL are represented by **)
11,CN(C)[C@@H]1C(O)=C(C(N)=O)C(=O)[C@@]2(C#N)C(O)=C3C(=O)c4c(O)cccc4[C@H](N)[C@@]3(N)[C@H](OC(=O)CN)[C@@]12N [BV],** (toxicities less than 25 μg/mL are represented by **)
12,C=CCC(O)c1ccc(OC)c(-c2ccc(O)c3c2C[C@@]2(N)C[C@@]4(N)[C@H](N(C)C)C(O)=C(C(N)=O)C(=O)[C@@]4(C#N)C(O)=C2C3=O)c1 (some centres unmarked) [UE],** (toxicities less than 25 μg/mL are represented by **)
13,CN(C)[C@@H]1C(O)=C(C(N)=O)C(=O)[C@@]2(C#N)C(O)=C3C(=O)c4c(O)ccc(-c5ccccn5)c4[C@H](N)[C@@]3(N)[C@H](O)[C@@]12N [CN],* (toxicities greater than >25 μg/ml are represented by *)
14,CN(C)c1cc(CNC(=O)NCC(Cl)(Cl)Cl)c(O)c2c1C[C@@]1(N)C[C@@]3(N)[C@H](N(C)C)C(O)=C(C(N)=O)C(=O)[C@@]3(C#N)C(O)=C1C2=O [MX],** (toxicities less than 25 μg/mL are represented by **)
15,CN(C)[C@@H]1C(O)=C(C(N)=O)C(=O)[C@@]2(C#N)C(O)=C3C(=O)c4c(O)ccc(C#Cc5c(F)c(F)c(F)c(F)c5F)c4C[C@@]3(N)C[C@@]12N [FK],** (toxicities less than 25 μg/mL are represented by **)
16,Cc1ccc(-c2ccc(O)c3c2C[C@@]2(N)C[C@@]4(N)[C@H](N(C)C)C(O)=C(C(N)=O)C(=O)[C@@]4(C#N)C(O)=C2C3=O)cc1 [FR],** (toxicities less than 25 μg/mL are represented by **)
17,CN(C)c1cc(NC(=O)Nc2cc(C(F)(F)F)cc(C(F)(F)F)c2)c(O)c2c1C[C@@]1(N)C[C@@]3(N)[C@H](N(C)C)C(O)=C(C(N)=O)C(=O)[C@@]3(C#N)C(O)=C1C2=O [IL],** (toxicities less than 25 μg/mL are represented by **)
18,CCC(=O)O[C@H]1[C@@]2(N)C(=C(O)[C@]3(C#N)C(=O)C(C(N)=O)=C(O)[C@@H](N(C)C)[C@]13N)C(=O)c1c(ccc(C(C)(C)C)c1O)[C@@H]2N [BC],** (toxicities less than 25 μg/mL are represented by **)
19,CC(N)CNCc1cc(N(C)C)c2c(c1O)C(=O)C1=C(O)[C@]3(C#N)C(=O)C(C(N)=O)=C(O)[C@@H](N(C)C)[C@]3(N)C[C@]1(N)C2 (some centres unmarked) [SV],* (toxicities greater than >25 μg/ml are represented by *)
20,CN(C)c1cc(-c2cccc(O)c2)c(O)c2c1C[C@@]1(N)C[C@@]3(N)[C@H](N(C)C)C(O)=C(C(N)=O)C(=O)[C@@]3(C#N)C(O)=C1C2=O [ES],** (toxicities less than 25 μg/mL are represented by **)
21,Cc1ccc(C#Cc2cc(N(C)C)c3c(c2O)C(=O)C2=C(O)[C@]4(C#N)C(=O)C(C(N)=O)=C(O)[C@@H](N(C)C)[C@]4(N)C[C@]2(N)C3)cc1 [FL],** (toxicities less than 25 μg/mL are represented by **)
22,"COC(=O)c1cc(N(C)C)c2c(c1O)C(=O)C1=C(O)[C@]3(C#N)C(=O)C(C(N)=O)=C(O)[C@@H](N(C)C)[C@]3(N)C[C@]1(N)C2 [Compound TC, 9-Minocycline methyl ester]",* (toxicities greater than >25 μg/ml are represented by *)
23,CN(C)c1cc(CNCC2CCCCC2)c(O)c2c1C[C@@]1(N)C[C@@]3(N)[C@H](N(C)C)C(O)=C(C(N)=O)C(=O)[C@@]3(C#N)C(O)=C1C2=O [TB],* (toxicities greater than >25 μg/ml are represented by *)
24,CC(C)S(=O)(=O)NCC#Cc1cc(N(C)C)c2c(c1O)C(=O)C1=C(O)[C@]3(C#N)C(=O)C(C(N)=O)=C(O)[C@@H](N(C)C)[C@]3(N)C[C@]1(N)C2 [JY],* (toxicities greater than >25 μg/ml are represented by *)
25,CN(C)[C@@H]1C(O)=C(C(N)=O)C(=O)[C@@]2(C#N)C(O)=C3C(=O)c4c(O)ccc(-c5cnccn5)c4C[C@@]3(N)C[C@@]12N [UX],* (toxicities greater than >25 μg/ml are represented by *)
26,CN(C)c1cc(CN(Cc2ccn[nH]2)Cc2ccn[nH]2)c(O)c2c1C[C@@]1(N)C[C@@]3(N)[C@H](N(C)C)C(O)=C(C(N)=O)C(=O)[C@@]3(C#N)C(O)=C1C2=O [TA],* (toxicities greater than >25 μg/ml are represented by *)
27,CN(C)c1cc(-c2ccc(CN3CCCC3)o2)c(O)c2c1C[C@@]1(N)C[C@@]3(N)[C@H](N(C)C)C(O)=C(C(N)=O)C(=O)[C@@]3(C#N)C(O)=C1C2=O [SQ],* (toxicities greater than >25 μg/ml are represented by *)
28,CN(C)c1cc(-c2cccc([N+](=O)O)c2)c(O)c2c1C[C@@]1(N)C[C@@]3(N)[C@H](N(C)C)C(O)=C(C(N)=O)C(=O)[C@@]3(C#N)C(O)=C1C2=O [EG],** (toxicities less than 25 μg/mL are represented by **)
29,CN(C)c1cc(NC(=O)Nc2ccc(Cl)cc2C(F)(F)F)c(O)c2c1C[C@@]1(N)C[C@@]3(N)[C@H](N(C)C)C(O)=C(C(N)=O)C(=O)[C@@]3(C#N)C(O)=C1C2=O [CB],** (toxicities less than 25 μg/mL are represented by **)
